Tests used:
[1] = molecular target: MST3/STK24 (Homo sapiens, UniProt Q9Y6E0); details: 1 μM; Run 1, Run 2
[2] = molecular target: T1, DCAMKL1 (Homo sapiens, UniProt O15075); experiment: biochemical; details: read-out: % enzyme activity, 1 μM; Run 1, Run 2
T1 sequence (O15075 1-740): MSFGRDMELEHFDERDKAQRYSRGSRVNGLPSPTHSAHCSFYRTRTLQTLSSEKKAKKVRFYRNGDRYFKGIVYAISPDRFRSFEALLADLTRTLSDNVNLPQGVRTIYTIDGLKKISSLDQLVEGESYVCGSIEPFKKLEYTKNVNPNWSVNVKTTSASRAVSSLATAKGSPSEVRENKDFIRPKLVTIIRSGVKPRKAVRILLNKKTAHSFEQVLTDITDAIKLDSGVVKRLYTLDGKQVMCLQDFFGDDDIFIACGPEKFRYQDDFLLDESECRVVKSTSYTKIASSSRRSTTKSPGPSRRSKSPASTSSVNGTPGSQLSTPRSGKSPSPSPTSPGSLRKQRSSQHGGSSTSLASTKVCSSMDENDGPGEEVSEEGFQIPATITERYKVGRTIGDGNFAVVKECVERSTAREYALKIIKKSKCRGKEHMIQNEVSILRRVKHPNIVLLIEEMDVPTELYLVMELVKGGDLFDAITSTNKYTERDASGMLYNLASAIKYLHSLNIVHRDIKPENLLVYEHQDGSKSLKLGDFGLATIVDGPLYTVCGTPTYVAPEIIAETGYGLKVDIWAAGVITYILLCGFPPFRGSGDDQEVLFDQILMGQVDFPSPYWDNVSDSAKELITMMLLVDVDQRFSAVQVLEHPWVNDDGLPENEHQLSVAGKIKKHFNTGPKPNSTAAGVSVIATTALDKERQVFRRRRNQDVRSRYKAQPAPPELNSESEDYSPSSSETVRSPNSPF

[3] = molecular target: CAMK2d (Homo sapiens, UniProt Q13557); details: 1 μM; Run 1, Run 2
Sequence of CAMK2d (Q13557 whole entry): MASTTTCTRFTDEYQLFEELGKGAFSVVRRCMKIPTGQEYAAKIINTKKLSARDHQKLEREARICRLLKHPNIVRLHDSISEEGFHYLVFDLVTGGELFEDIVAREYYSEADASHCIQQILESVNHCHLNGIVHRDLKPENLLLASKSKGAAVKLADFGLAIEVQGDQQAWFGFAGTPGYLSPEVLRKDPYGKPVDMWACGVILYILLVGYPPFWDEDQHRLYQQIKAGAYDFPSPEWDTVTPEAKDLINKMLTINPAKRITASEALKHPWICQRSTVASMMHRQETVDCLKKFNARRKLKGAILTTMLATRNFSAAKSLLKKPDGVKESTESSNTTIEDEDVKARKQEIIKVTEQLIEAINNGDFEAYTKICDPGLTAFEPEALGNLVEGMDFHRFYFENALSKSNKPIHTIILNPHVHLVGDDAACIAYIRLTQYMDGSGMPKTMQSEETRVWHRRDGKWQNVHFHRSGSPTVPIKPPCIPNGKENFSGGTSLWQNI

[4] = molecular target: CLK1 (Homo sapiens, UniProt P49759); experiment: biochemical; details: read-out: % enzyme activity, 1 μM; Run 1, Run 2
Sequence of CLK1 (P49759 whole entry): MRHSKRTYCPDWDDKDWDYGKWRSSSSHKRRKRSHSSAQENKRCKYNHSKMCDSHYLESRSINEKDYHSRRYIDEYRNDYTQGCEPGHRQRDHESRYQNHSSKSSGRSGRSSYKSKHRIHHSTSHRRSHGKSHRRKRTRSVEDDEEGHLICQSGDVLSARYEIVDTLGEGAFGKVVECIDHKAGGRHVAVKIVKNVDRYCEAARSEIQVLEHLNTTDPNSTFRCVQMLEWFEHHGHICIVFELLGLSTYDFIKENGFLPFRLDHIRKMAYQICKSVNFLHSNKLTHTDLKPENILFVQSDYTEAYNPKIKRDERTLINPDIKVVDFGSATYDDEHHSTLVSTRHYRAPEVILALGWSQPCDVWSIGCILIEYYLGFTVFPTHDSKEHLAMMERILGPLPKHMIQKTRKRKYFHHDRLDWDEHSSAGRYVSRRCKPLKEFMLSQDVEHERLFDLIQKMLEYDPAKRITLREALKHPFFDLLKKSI

[5] = molecular target: T2, MAPKAPK5/PRAK (Homo sapiens, UniProt Q8IW41); details: 1 μM; Run 1, Run 2
T2 sequence (Q8IW41 1-473): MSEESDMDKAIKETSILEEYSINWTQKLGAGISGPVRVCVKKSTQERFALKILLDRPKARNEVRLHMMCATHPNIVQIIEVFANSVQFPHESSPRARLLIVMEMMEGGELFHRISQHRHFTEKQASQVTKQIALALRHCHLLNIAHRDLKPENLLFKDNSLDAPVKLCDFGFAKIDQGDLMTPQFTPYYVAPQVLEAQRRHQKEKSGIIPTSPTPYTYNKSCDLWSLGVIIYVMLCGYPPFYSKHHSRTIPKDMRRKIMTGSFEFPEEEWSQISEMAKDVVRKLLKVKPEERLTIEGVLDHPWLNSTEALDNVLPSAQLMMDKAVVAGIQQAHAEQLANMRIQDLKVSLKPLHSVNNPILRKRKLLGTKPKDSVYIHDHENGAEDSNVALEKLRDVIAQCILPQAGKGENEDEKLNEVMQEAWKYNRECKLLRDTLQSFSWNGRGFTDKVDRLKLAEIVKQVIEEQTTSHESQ

[6] = molecular target: PKCb2 (Homo sapiens, UniProt P05771); details: 1 μM; Run 1, Run 2
Sequence of PKCb2 (P05771 1-673 isoform P05771-2): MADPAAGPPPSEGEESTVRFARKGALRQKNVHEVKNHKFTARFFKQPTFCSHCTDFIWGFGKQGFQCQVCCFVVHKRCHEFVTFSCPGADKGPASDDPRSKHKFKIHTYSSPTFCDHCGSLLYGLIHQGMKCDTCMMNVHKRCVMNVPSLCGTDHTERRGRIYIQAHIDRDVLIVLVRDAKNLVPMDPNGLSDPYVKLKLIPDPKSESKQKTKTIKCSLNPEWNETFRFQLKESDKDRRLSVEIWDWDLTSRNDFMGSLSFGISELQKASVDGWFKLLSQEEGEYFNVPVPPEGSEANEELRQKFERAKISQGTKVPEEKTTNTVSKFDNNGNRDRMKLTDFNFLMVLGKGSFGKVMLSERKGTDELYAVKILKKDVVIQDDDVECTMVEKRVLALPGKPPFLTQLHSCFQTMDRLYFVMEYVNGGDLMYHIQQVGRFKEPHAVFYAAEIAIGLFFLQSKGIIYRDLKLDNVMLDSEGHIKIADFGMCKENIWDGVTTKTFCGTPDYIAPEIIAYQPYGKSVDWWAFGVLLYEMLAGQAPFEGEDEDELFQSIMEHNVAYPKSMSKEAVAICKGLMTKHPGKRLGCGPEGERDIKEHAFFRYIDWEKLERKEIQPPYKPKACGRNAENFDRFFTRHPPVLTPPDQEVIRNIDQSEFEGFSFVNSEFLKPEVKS

[7] = molecular target: T3, ULK1 (Homo sapiens, UniProt O75385); details: 1 μM; Run 1, Run 2
T3 sequence (O75385 1-1050): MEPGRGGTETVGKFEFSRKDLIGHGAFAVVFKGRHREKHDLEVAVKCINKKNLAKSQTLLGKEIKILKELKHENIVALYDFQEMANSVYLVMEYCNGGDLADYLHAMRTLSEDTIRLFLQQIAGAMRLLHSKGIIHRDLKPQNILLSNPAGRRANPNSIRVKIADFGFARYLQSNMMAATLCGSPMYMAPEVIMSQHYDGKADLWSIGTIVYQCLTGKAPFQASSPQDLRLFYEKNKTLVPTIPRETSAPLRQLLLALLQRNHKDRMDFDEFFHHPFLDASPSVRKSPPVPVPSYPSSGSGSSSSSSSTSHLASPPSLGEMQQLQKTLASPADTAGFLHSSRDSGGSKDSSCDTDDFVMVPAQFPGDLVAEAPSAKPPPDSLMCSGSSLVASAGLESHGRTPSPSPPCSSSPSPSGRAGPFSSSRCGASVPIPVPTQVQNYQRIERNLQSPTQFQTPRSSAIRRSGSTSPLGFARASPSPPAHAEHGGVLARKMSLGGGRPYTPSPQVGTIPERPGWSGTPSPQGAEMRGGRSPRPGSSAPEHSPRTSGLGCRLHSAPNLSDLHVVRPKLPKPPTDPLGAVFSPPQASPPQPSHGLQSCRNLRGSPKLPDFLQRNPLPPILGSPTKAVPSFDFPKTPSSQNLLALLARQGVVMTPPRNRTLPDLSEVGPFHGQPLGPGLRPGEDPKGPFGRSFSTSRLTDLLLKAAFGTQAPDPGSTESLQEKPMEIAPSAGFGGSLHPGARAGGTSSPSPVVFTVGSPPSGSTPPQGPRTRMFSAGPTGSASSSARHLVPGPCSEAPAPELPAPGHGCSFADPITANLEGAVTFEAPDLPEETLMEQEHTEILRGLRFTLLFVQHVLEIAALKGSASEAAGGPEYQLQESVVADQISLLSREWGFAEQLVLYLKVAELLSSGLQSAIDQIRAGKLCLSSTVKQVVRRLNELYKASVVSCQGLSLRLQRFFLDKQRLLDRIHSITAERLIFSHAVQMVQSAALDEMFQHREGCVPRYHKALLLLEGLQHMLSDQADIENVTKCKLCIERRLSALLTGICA

Sequence of MST3/STK24 (Q9Y6E0 whole entry): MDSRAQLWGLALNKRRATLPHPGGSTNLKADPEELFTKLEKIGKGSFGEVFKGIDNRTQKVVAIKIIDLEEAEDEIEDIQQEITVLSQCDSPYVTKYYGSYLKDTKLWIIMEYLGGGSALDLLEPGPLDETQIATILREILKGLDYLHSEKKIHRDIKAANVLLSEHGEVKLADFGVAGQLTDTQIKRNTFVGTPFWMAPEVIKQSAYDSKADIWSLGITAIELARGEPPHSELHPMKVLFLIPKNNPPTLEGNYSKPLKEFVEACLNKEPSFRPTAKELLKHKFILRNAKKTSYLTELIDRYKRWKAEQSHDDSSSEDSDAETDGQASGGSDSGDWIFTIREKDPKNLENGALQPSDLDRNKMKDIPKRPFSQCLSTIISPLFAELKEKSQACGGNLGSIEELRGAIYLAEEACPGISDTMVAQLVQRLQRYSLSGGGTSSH

Compound	% enzyme activity [1] [%]	remaining activity at 1 µM [2] [%]	% enzyme activity [3] [%]	remaining activity at 1 µM [4] [%]	% enzyme activity [5] [%]	% enzyme activity [6] [%]	% enzyme activity [7] [%]
COc1cc(-c2cncc(-c3ccc(N4CCN(C)CC4)cc3)c2C)cc(F)c1C(N)=O [Compound 26a, 2-Fluoro-6-methoxy-4-(4-methyl-5-(4-(4-methylpiperazin-1-yl)phenyl)pyridin-3-yl)benzamide]	87.91	81.8	94.73	97.8	90.60	106.51	83.53
COc1cc(-c2cncc(-c3ccc(N4C[C@@H](C)N(C)[C@@H](C)C4)cc3)c2C)cc(F)c1C(N)=O [Compound 26c, 2-Fluoro-6-methoxy-4-(4-methyl-5-(4-((3R,5S)-3,4,5-trimethylpiperazin-1-yl)phenyl)pyridin-3-yl)benzamide]	94.57	89.1	95.15	88	94.46	97.56	89.24
